# Measurements taken from patent publication US12655116B2, “Substituted isophthalic acid diamides” (Bayer Aktiengesellschaft, priority 2020, dated 2026).
# Key:
# [1] = tested on: AMARE; experiment: Pre-emergence herbicidal action against AMARE; type: in vivo, Amaranthus retroflexus
# In short: (§1)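 Herbicidal effect was assessed 3 weeks after treatment by visual comparison with untreated controls, 100% denoting dead plants. Aqueous WP or EC preparations had been applied at 600 to 800 l/ha with 0.2% wetting agent to the soil covering freshly sown seeds.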
# [2] = tested on: ABUTH; experiment: Post-emergence herbicidal action against ABUTH; type: in vivo, Abutilon theophrasti; conditions: visual assessment about 3 weeks after treatment vs untreated controls
# In short: (§2)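 Post-emergence greenhouse test; one-leaf stage, 2–3 wk post-sowing, sandy loam. Foliar spray of WP/EC in water, 600–800 l/ha, +0.2% wetting agent. Visual % action at ~3 wk vs untreated (100% = plants dead).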
# [3] = tested on: ALOMY; experiment: Post-emergence herbicidal action against ALOMY; type: in vivo, Alopecurus myosuroides; conditions: dosage 20 g/ha, visual assessment about 3 weeks after treatment vs untreated controls
# Method: (§3) Seeds of monocotyledonous and dicotyledonous weed and crop plants are laid out in sandy loam soil in wood-fiber pots, covered with soil and cultivated in a greenhouse under good growth conditions. 2 to 3 weeks after sowing, the test plants are treated at the one-leaf stage. The compounds of the invention, formulated in the form of wettable powders (WP) or as emulsion concentrates (EC), are then sprayed onto the green parts of the plants in the form of an aqueous suspension or emulsion at a water application rate equivalent to 600 to 800 l/ha, with addition of 0.2% wetting agent. After the test plants have been left to stand in the greenhouse under optimal growth conditions for about 3 weeks, the action of the preparations is assessed visually in comparison to untreated controls (herbicidal action in percent (%): 100% activity=the plants have died, 0% activity=like control plants). […] The tables below illustrate, in an illustrative manner, the post-emergence herbicidal action of the compounds of the invention, the herbicidal activity being stated in percent.
# [4] = tested on: AMARE; experiment: Post-emergence herbicidal action against AMARE; type: in vivo, Amaranthus retroflexus; conditions: 20 g/ha, visual assessment about 3 weeks after treatment, 100% = plants have died, 0% = like control plants
# In short: as §2
# [5] = tested on: ABUTH; experiment: Pre-emergence herbicidal action against ABUTH; type: in vivo, Abutilon theophrasti; conditions: for Pre-emergence action against ABUTH (herbicidal activity): 80 g/ha, scored visually after 3 weeks vs untreated controls (100% = plants have died, 0% = like control plants); for Pre-emergence action against ABUTH (herbicidal activity in percent): dosage 20 g/ha, scored visually after 3 weeks vs untreated controls, 100% = plants have died, 0% = like control plants
# In short: as §1
# [6] = tested on: VIOTR; experiment: Pre-emergence herbicidal action against VIOTR; type: in vivo, Viola tricolor
# In short: as §1
# [7] = tested on: MATIN; experiment: Pre-emergence herbicidal action against MATIN; type: in vivo, Matricaria inodora
# In short: as §1
# [8] = tested on: VERPE; experiment: Pre-emergence herbicidal action against VERPE; type: in vivo, Veronica persica; conditions: dosage 80 g/ha
# Excerpt: (§4) Seeds of monocotyledonous and dicotyledonous weed plants and crop plants are laid out in sandy loam soil in wood-fiber pots and covered with soil. The compounds of the invention, formulated in the form of wettable powders (WP) or as emulsion concentrates (EC), are then applied to the surface of the covering soil in the form of an aqueous suspension or emulsion at a water application rate equivalent to 600 to 800 l/ha, with addition of 0.2% wetting agent. After the treatment, the pots are placed in a greenhouse and kept under good growth conditions for the trial plants. The damage to the test plants is scored visually after a test period of 3 weeks by comparison with untreated controls (herbicidal activity in percent (%): 100% activity=the plants have died, 0% activity=like control plants). […] The tables below illustrate, in an illustrative manner, the post-emergence herbicidal action of the compounds of the invention, the herbicidal activity being stated in percent.
# [9] = tested on: MATIN; experiment: Post-emergence herbicidal action against MATIN; type: in vivo, Matricaria inodora; conditions: dosage 20 g/ha
# Method: as §3
# [10] = tested on: ALOMY; experiment: Pre-emergence herbicidal action against ALOMY; type: in vivo, Alopecurus myosuroides; conditions: 80 g/ha, pre-emergence, scored visually after 3 weeks vs untreated controls (100% = plants have died, 0% = like control plants)
# In short: as §1
# [11] = tested on: PHBPU; experiment: Post-emergence herbicidal action against PHBPU; type: in vivo, Pharbitis purpurea
# In short: as §2
# [12] = tested on: VERPE; experiment: Post-emergence herbicidal action against VERPE; type: in vivo, Veronica persica; conditions: 20 g/ha
# Method: as §3
# [13] = tested on: VIOTR; experiment: Post-emergence herbicidal action against VIOTR; type: in vivo, Viola tricolor; conditions: 20 g/ha
# Method: as §3
# [14] = tested on: SETVI; experiment: Post-emergence herbicidal action against SETVI; type: in vivo, Setaria viridis; conditions: dosage 20 g/ha
# In short: as §2
# [15] = tested on: SETVI; experiment: Pre-emergence herbicidal action against SETVI; type: in vivo, Setaria viridis; conditions: dosage 80 g/ha
# In short: as §1
# [16] = tested on: DIGSA; experiment: Pre-emergence herbicidal action against DIGSA; type: in vivo, Digitaria sanguinalis
# In short: as §1
# [17] = tested on: ECHCG; experiment: Post-emergence herbicidal action against ECHCG; type: in vivo, Echinochloa crus-galli; conditions: dosage 20 g/ha
# In short: as §2
# [18] = tested on: DIGSA; experiment: Post-emergence herbicidal action against DIGSA; type: in vivo, Digitaria sanguinalis; conditions: for Post-emergence action against DIGSA: 20 g/ha
# Method: as §3
# [19] = tested on: AVEFA; experiment: Pre-emergence herbicidal action against AVEFA; type: in vivo, Avena fatua; conditions: 80 g/ha, pre-emergence
# Excerpt: as §4
# [20] = tested on: ECHCG; experiment: Pre-emergence herbicidal action against ECHCG; type: in vivo, Echinochloa crus-galli
# In short: as §1
# [21] = 20 g/ha, scored visually after 3 weeks vs untreated controls, 100% = plants have died, 0% = like control plants
# [22] = 80 g/ha, scored visually after 3 weeks vs untreated controls (100% = plants have died, 0% = like control plants)
Structure (SMILES),"Pre-emergence action against AMARE in % [1, 21] [%]","Pre-emergence action against AMARE in % [1, 22] [%]",Post-emergence action against ABUTH in % ([2]; dosage 20 g/ha) [%],Post-emergence action against ALOMY in % [3] [%],Post-emergence action at 20 g/ha against AMARE in % [4] [%],Pre-emergence action against ABUTH (herbicidal activity) [5] [%],Pre-emergence action against VIOTR in % ([6]; dosage 80 g/ha) [%],Pre-emergence action against MATIN in % ([7]; dosage 80 g/ha) [%],Pre-emergence action against VERPE in % [8] [%],Post-emergence action against MATIN in % [9] [%],Pre-emergence action against ALOMY (herbicidal activity) [10] [%],Post-emergence action against ABUTH in % ([2]; dosage 5 g/ha) [%],Post-emergence action against PHBPU in % ([11]; dosage 5 g/ha) [%],Post-emergence action against PHBPU in % ([11]; dosage 20 g/ha) [%],Post-emergence action against VERPE in % [12] [%],Pre-emergence action against MATIN in % ([7]; dosage 20 g/ha) [%],Post-emergence action against SETVI in % [14] [%],Pre-emergence action against SETVI in % [15] [%],Post-emergence action against ECHCG in % [17] [%],Pre-emergence action against ABUTH (herbicidal activity in percent) [5] [%],further results
CCn1nnnc1NC(=O)c1ccc(C(F)F)c(C(=O)NCC(=O)N(C)C)c1Cl [Example 2-160],100,100,90,80,100,90,100,90,80,–,–,–,–,–,–,–,–,–,–,–,–
CN(C)C(=O)CNC(=O)c1c(C(F)(F)F)ccc(C(=O)Nc2nnnn2C)c1Cl [Example 1-142],–,100,–,90,90,–,90,90,–,–,–,–,–,–,–,–,–,–,–,–,–
CCNC(=O)c1c(OC)ccc(C(=O)Nc2nnnn2CC)c1Cl [Example 2-353],100,100,100,–,100,100,100,100,–,80,90,90,80,80,100,90,–,–,–,–,Post-emergence action against VIOTR in % [13]: 80%; Pre-emergence action against VIOTR in % ([6]; dosage 20 g/ha): 90%
Cc1nnc(NC(=O)c2ccc(C(F)(F)F)c(C(=O)NC(C)C3CC3)c2Cl)o1 (stereo not drawn) [Example 6-254],100,100,80,–,100,100,90,100,100,80,90,–,–,80,80,80,80,80,90,100,Pre-emergence action against DIGSA in % ([16]; dosage 20 g/ha): 90%; Pre-emergence action against DIGSA in % ([16]; dosage 80 g/ha): 100%; Post-emergence action against DIGSA in % ([18]; 5 g/ha): 80%; Post-emergence action against DIGSA [18]: 90%; Pre-emergence action against AVEFA in % [19]: 90%; Pre-emergence action against ECHCG in % ([20]; 20 g/ha): 90%; Pre-emergence action against ECHCG in % ([20]; 80 g/ha): 100%
CCn1nnnc1NC(=O)c1ccc(C(F)(F)F)c(C(=O)NCC(F)(F)F)c1Br [Example 2-211],100,100,80,80,90,100,80,100,–,80,90,80,80,80,–,90,90,100,80,100,Post-emergence action against DIGSA [18]: 80%; Pre-emergence action against AVEFA in % [19]: 80%; Pre-emergence action against ECHCG in % ([20]; 80 g/ha): 90%
